From US20250091994A1, “RAS/RAF BINDING INHIBITOR COMPOUND” (NATIONAL UNIVERSITY CORPORATION KOBE UNIVERSITY, priority 2021, published 2025)
Like-named read-outs stand apart in the source and are kept apart here.

Legend:
[1] = molecular target: GTPγS-bound human HRasG12V / human c-Raf-1 Ras binding domain (RBD) (Homo sapiens (Human), UniProt P01112, G12V); assay: Ras-Raf binding inhibition ELISA
Description: The in vitro Ras-Raf binding inhibitory activity of the compound of the present invention was evaluated by an ELISA method (Enzyme-Linked ImmunoSorbent Assay) described below.
Ras and Raf used upon the evaluation were purified and activated by the following method.
Using a pGEX6P-1 vector (GE Healthcare), human HRasG12V (full length, 1-189 amino acid residues) and human c-Raf-1 Ras binding domain (RBD) (50-131 amino acid residues) were each allowed to express as a fusion body with glutathione S-transferase (GST) in E. coli.
GST-HRasG12V-expressing cells were subjected to ultrasonication in a buffer {50 mM Tris-HCl pH 7.4, 150 mM NaCl, 5 mM MgCl2, 1 mM ethylenediaminetetraacetic acid (EDTA), 1 mM dithiothreitol (DTT), 10% glycerol, and 1% Triton-X100}, and were then centrifuged at 100,000×g for 30 minutes, so as to collect the supernatant as a Ras protein fraction. HRasG12V in the supernatant was immobilized on a glutathione-agarose resin, and GST was then cleaved with PreScission Protease (GE Healthcare) for purification. The obtained HRasG12V was mixed with guanosine 5′-O-[gamma-thio]triphosphate trisodium salt (GTPTS) of 1000 times higher concentration at 30° C. for 1 hour, and thereafter, 20 mM MgCl2 (final concentration) was added to stop the reaction and collect the GTPgS-loaded HRasG12V as a product.
On the other hand, GST-c-Raf-1 RBD-expressing cells were subjected to ultrasonication in the same buffer as described above, and were then centrifuged at 100,000×g for 30 minutes, so as to collected the supernatant as a GST-c-Raf-1 RBD protein fraction.
The in vitro Ras-Raf binding inhibitory activity of the compound of the present invention was evaluated by an ELISA method described below.
GST-c-Raf-1 RBD diluted with a Ras-Raf binding buffer (50 mM Tris-HCl pH7.4, 150 mM NaCl, 5 mM MgCl2, 1 mM EDTA, and 1% Triton-X100) was added to each well of a glutathione-coated 96-well plate (Thermo Fisher Scientific.), and was incubated at 30° C. for 1 hour, to immobilize Raf on the well. The unbound free Raf was eliminated by washing the well with the Ras-Raf binding buffer three times. Subsequently, GTPTS-bound HRasG12V diluted with the Ras-Raf binding buffer and each compound solution (final DMSO concentration: 10%) were applied to each well, and the resulting mixture was then incubated at 30° C. for 1 hour, so that Ras and Raf were allowed to bind to each other. Thereafter, the plate was washed with the Ras-Raf binding buffer twice, and was then subjected to a blocking treatment at room temperature for 20 minutes, using TBS-Tween {10 mM Tris-HCl pH 7.4, 150 mM NaCl, and 0.05% (w/v) Tween-20}-5% (w/v) bovine serum albumin (BSA). After that, an anti-HRas antibody (C-20, Santa Cruz) or an anti-HRas antibody (259, Santa Cruz), which had been 1000 times diluted with TBS-Tween-5% BSA, was added to the reaction mixture, and incubated at room temperature for 1 hours. After the treatment with the primary antibody, the plate was washed with TBS-Tween-5% BSA three times, and a horseradish peroxidase-labeled secondary antibody against rabbit immunoglobulin G (GE Healthcare) of 1000 times diluted with TBS-Tween-5% BSA, was added to the plate, followed by incubation at room temperature for 1 hour. After the treatment with the secondary antibody, the plate was washed with TBS-Tween-5% BSA three times, and a substrate solution (TMB) was then added to the plate, followed by incubation at room temperature for 15 minutes for coloration. Finally, 2 M H2SO4 was added to stop color development (coloration reaction kit: Nacalai Tesque). The absorbance at 450 nm (OD450) was measured, so that the color intensity was quantified. Inhibition by the test compound was determined according to the following equation: […]
IC50 (*) in which the anti-HRas antibody (259, Santa Cruz) was used

[2] = test system: acute lymphoblastic leukemia cells CCRF-CEM (K-RasG12D); assay: Cell growth inhibition, suspension cells CCRF-CEM; format: cell-based; settings: Homo sapiens, 72 hours; for inhibition at 1 µM: read-out: CCRF-CEM (KRasG12D) % inhibition at 1 μM; for inhibition at 10 µM: read-out: CCRF-CEM (KRasG12D) % inhibition at 10 μM (**)
Description: (§1) The cell growth inhibitory activity of the compound of the present invention on human culture cells having active-type mutation in Ras was evaluated by the below-mentioned method using suspension cancer cells {acute lymphoblastic leukemia cells CCRF-CEM (K-RasG12D), promyelocytic leukemia cells HL60 (N-RasQ61L), acute lymphoblastic leukemia cells MOLT4 (N-RasG12C), and small cell lung cancer cells SHP77 (K-RasG12V)} and adherent cancer cells {large bowel cancer cells SW480 (K-RasG12V) and large bowel cancer cell SW620 (K-RasG12V)}.
(§2) (Case of suspension cells) The cells suspended in a medium containing 0.5% (v/v) fetal bovine serum (FBS) and each compound solution (final DMSO concentration: 1%) were seeded on a 96-well plate (2 to 4×10^4 cells/well), and the resulting mixture was then cultured at 37° C. in the presence of 5% CO2 for 72 hours.
(§3) Thereafter, the number of viable cells was measured using Cell Counting Reagent (Nacalai Tesque) in accordance with the manufacturer's instructions. Inhibition by the test compound was determined according to the following equation: […]

[3] = test system: promyelocytic leukemia cells HL60 (N-RasQ61L); assay: Cell growth inhibition, suspension cells HL60; format: cell-based; settings: Homo sapiens, HL-60, 72 hours; for inhibition at 10 µM: read-out: HL-60 (NRasQ61L) % inhibition at 10 μM (***); for inhibition at 1 µM: read-out: HL-60 (NRasQ61L) % inhibition at 1 μM; for inhibition at 3.2 µM: read-out: HL-60 (NRasQ61L) % inhibition at 3.2 μM (****)
Description: as §1, §2, §3

[4] = test system: large bowel cancer cell SW620 (K-RasG12V); assay: Cell growth inhibition, adherent cells SW620; format: cell-based; settings: Homo sapiens, SW-620; 3.2 μM (***), 72 hours; read-out: SW620 (KRasG12V) % inhibition at 3.2 μM (***)
Description: as §1
(Case of adherent cells) The cells suspended in a medium containing 10% FBS (1 to 2×10^4 cells/well) were seeded on a 96-well plate, and were then cultured at 37° C. in the presence of […]. Thereafter, the medium was exchanged with a medium containing […], to which each compound solution (final DMSO concentration: […]) had been added, and the cells were then cultured at 37° C. in the presence of […] for 72 hours.
as §3

[5] = anti-HRas antibody C-20, read-out: ELISA IC50 (μM): 1st Ab_C-20
[6] = anti-HRas antibody 259 (*), read-out: ELISA IC50 (μM): 1st Ab_259 (*)

GTPγS-bound human HRasG12V / human c-Raf-1 Ras binding domain (RBD), sequence (P01112 whole entry G12V, the tested form may be a part): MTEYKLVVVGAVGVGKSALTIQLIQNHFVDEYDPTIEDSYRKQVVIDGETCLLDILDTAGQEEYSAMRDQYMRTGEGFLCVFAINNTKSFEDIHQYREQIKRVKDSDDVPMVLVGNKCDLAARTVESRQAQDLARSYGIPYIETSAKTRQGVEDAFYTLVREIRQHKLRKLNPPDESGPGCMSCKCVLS

SMILES | IC50 [1, 5] | inhibition at 1 µM [2] | inhibition at 10 µM [2] | further results
CC(=O)N1/C(=C/c2nc(C(=O)N3CCOCC3)cs2)C(=O)c2ccccc21 [Example 55, (E)-1-acetyl-2-((4-(morpholine-4-carbonyl)thiazol-2-yl)methylene)-indolin-3-one] |  |  | 78% | inhibition at 10 µM [3]: 96%
CC(=O)N1/C(=C\c2ccc3cc(C(=O)N4CCS(=O)(=O)CC4)ccc3n2)C(=O)c2ccccc21 [Example 60, (Z)-1-acetyl-2-((6-(1,1-dioxido-thiomorpholine-4-carbonyl)quinolin-2-yl)methylene)-indolin-3-one] | 6 µM |  | 99% | 
CC(=O)N1/C(=C\c2ccc(OS(C)(=O)=O)cn2)C(=O)c2ccccc21 [Example 61, (Z)-6-((1-acetyl-3-oxoindolin-2-ylidene)methyl)-pyridin-3-yl methanesulfonate] | 2.7 µM | 35% |  | 
CC(=O)N1/C(=C\c2ccc3cc(CN4CCS(=O)(=O)CC4)ccc3n2)C(=O)c2ccccc21 [Example 107, (Z)-1-acetyl-2-((6-((1,1-dioxido-thiomorpholino)-methyl)quinolin-2-yl)methylene)-indolin-3-one] | 1.7 µM |  | 81% | inhibition at 10 µM [3]: 82%
COCCN1CCN(C(=O)c2ccc3nc(/C=C4/C(=O)c5ccccc5N4C(C)=O)ccc3c2)CC1 [Example 116, (Z)-1-acetyl-2-((6-(4-(2-methoxy-ethyl)piperazine-1-carbonyl)quinolin-2-yl)methylene)-indolin-3-one] |  |  | 98% | 
CC(=O)N1/C(=C\c2nc3cc(CNC4CCOCC4)ccc3s2)C(=O)c2ccccc21 [Example 132, (Z)-1-acetyl-2-((5-(((tetrahydro-2H-pyran-4-yl)-amino)methyl)-benzo[d]thiazol-2-yl)methylene)-indolin-3-one] |  | 38% |  | inhibition at 1 µM [3]: 42%; IC50 [1, 6]: 1.2 µM
CC(=O)N1/C(=C\c2ccc3cc(CNC4CCS(=O)(=O)CC4)ccc3n2)C(=O)c2ccccc21 [Example 133] |  |  | 80% | inhibition at 10 µM [3]: 99%; IC50 [1, 6]: 1.8 µM

Now from value to molecule, other results behind:

IC50 [1, 5] | SMILES | inhibition at 1 µM [2] | inhibition at 10 µM [2] | further results
3.1 µM | CC(=O)N1/C(=C\c2ccc3cc(CO)ccc3n2)C(=O)c2ccccc21 [Example 33, (Z)-1-acetyl-2-((6-(hydroxymeth-yl)quinolin-2-yl)-methylene)indolin-3-one] | 94% |  | 
2.6 µM | CC(=O)N1/C(=C\c2ccc3cc(CN4CCOCC4)ccc3n2)C(=O)c2ccccc21 [Example 35, (Z)-1-acetyl-2-((6-(morpholino-methyl)quinolin-2-yl)methylene)-indolin-3-one] | 40% |  | 
2.4 µM | CC(=O)N1/C(=C\c2ccc3cc(CN(C)C4CCOCC4)ccc3n2)C(=O)c2ccccc21 [Example 71, (Z)-1-acetyl-2-((6-((methyl(tetra-hydro-2H-pyran-4-yl)amino)meth-yl)quinolin-2-yl)-methylene)indolin-3-one] |  | 82% | inhibition at 1 µM [3]: 41%
11 µM | CC(=O)N1/C(=C\c2ccc3cc(C(=O)N4CCC(N5CCOCC5)CC4)ccc3n2)C(=O)c2ccccc21 [Example 115, (Z)-1-acetyl-2-((6-(4-morpholino-piperidine-1-carbonyl)quinolin-2-yl)methylene)-indolin-3-one] |  | 98% | 
1.2 µM | CC(=O)N1/C(=C\c2cc(-c3ccccc3-c3ccccc3)c3cc(C(N)=O)ccc3n2)C(=O)c2ccccc21 [Example 141, (Z)-4-([1,1′-biphenyl]-2-yl)-2-((1-acetyl-3-oxo-indolin-2-ylidene)-methyl)quinoline-6-carboxamide] |  |  | inhibition at 3.2 µM [3]: 94.6%; inhibition at 1 µM [1]: 46.2%; inhibition at 3.2 µM [4]: 91.3%
0.6 µM | CC(=O)N1/C(=C\c2cc(-c3ccccc3-c3ccccc3)c3cc(CNC4CCOCC4)ccc3n2)C(=O)c2ccccc21 [Example 143, (Z)-2-((4-([1,1′-biphenyl]-2-yl)-6-(((tetrahydro-2H-pyran-4-yl)amino)-methyl)quinolin-2-yl)methylene)-1-acetylindolin-3-one] |  |  | inhibition at 3.2 µM [3]: 97.2%; inhibition at 1 µM [1]: 44.3%; inhibition at 3.2 µM [4]: 79.3%
